The record followed here is patent US20260078120A1, “SUBSTITUTED PYRIDOPYRIMIDINONES” (MIRATI THERAPEUTICS, INC., priority 2022, published 2026).

The structures appear in SMILES notation.

Experiment [1] deals with T47D (PI3Kα H1047R mutant) cells. The experiment is described as follows: CellTiter-Glo 2.0 luminescent cell viability assay, 72 hours, T47D cells. The settings on record: Homo sapiens, T47D, 72 h, T47D (PI3Kα H1047R mutant) cells, CellTiter-Glo, approximately 72 hours; read-out: T47D (H1047R mutant) Viability IC50. It counts as cell-based. In short, it runs like this: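 Cells seeded at 1000 per well overnight were dosed with a 10-concentration, 1:4 series starting at 10 µM and incubated ~72 h at 37° C. Viability was read by CellTiter-Glo 2.0 luminescence after 30 min at room temperature. IC50 came from four-parameter fits of percent vehicle control.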

For experiment [2], the system named is SKBR3 (PI3Kα wild type) cells. Briefly: CellTiter-Glo 2.0 luminescent cell viability assay, 72 hours, SKBR3 cells. It counts as cell-based. Particulars: Homo sapiens, SK-BR-3, 72 h, SKBR3 (PI3Kα wild type) cells, CellTiter-Glo, approximately 72 hours; read-out: SKBR3 (WT) Viability IC50. The procedure, abridged: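 Viability measured via CTG luminescence following roughly 72 hours of compound exposure at 37° C. Dosing used a 10 um starting concentration diluted 1:4 over 10 points; percent-of-vehicle data fitted with a variable-slope four-parameter model for IC50.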
In general terms: In ATP-based viability assays light output follows the ATP content of the culture.

By IC50 is commonly meant the concentration that inhibits the measured activity by half.

In the case of `Cc1cc(C(C)Nc2ccc(F)cc2C(=O)O)c2nc(N3Cc4ccccc4C3)c(C)c(=O)n2c1` (centres unmarked) [Example 11-367, 5-fluoro-2-((1-(2-(isoindolin-2-yl)-3,7-dimethyl-4-oxo-4H-pyrido[1,2-a]pyrimidin-9-yl)ethyl)amino)benzoic acid], the figures for the IC50 in experiment [1] and in experiment [2] were 0.6 µM and above 10 µM, respectively.

Regarding `Cc1cc(C(C)Nc2ccccc2C(=O)O)c2nc(SC3CCOC3)cc(=O)n2c1` (centres unmarked) [Example 11-370, 2-((1-(7-methyl-4-oxo-2-((tetrahydrofuran-3-yl)thio)-4H-pyrido[1,2-a]pyrimidin-9-yl)ethyl)amino)benzoic acid], the concentration for half-maximal inhibition (IC50) in experiment [1] and in experiment [2] was above 10 µM each time.

`Cc1cc(C(C)Nc2ccccc2C(=O)O)c2nc(OC3CCOC3)cc(=O)n2c1` (centres unmarked) [Example 11-371, 2-((1-(7-methyl-4-oxo-2-((tetrahydrofuran-3-yl)oxy)-4H-pyrido[1,2-a]pyrimidin-9-yl)ethyl)amino)benzoic acid]: the values for the IC50 in experiment [1] and in experiment [2] were 9.07 µM and 3.04 µM, respectively.

Turning to `COc1cc(=O)n2cc(C)cc(C(C)Nc3ccccc3C(=O)O)c2n1` (centres unmarked) [Example 11-372, 2-((1-(2-methoxy-7-methyl-4-oxo-4H-pyrido[1,2-a]pyrimidin-9-yl)ethyl)amino)benzoic acid], the IC50 in experiment [1] and in experiment [2] was above 10 µM in each case.

With `Cc1cc(C(C)Nc2ccccc2C(=O)O)c2nc(-c3cn[nH]c3)cc(=O)n2c1` (centres unmarked) [Example 11-373, 2-((1-(7-methyl-4-oxo-2-(1H-pyrazol-4-yl)-4H-pyrido[1,2-a]pyrimidin-9-yl)ethyl)amino)benzoic acid], the IC50 in experiment [1] is 7.64 µM; in experiment [2], above 10 µM.

For `Cc1cc([C@H](C)Nc2ccccc2C(=O)O)c2nc([C@H]3CCN(C)C(=O)C3)cc(=O)n2c1` [Example 11-374, 2-(((S)-1-(7-methyl-2-((S)-1-methyl-2-oxopiperidin-4-yl)-4-oxo-4H-pyrido[1,2-a]pyrimidin-9-yl)ethyl)amino)benzoic acid], the IC50 in experiment [1] and in experiment [2] was above 10 µM in each case.

On to `Cc1cc([C@H](C)Nc2ccccc2C(=O)O)c2nc([C@@H]3CCN(C)C(=O)C3)cc(=O)n2c1` [Example 11-375, 2-(((S)-1-(7-methyl-2-((R)-1-methyl-2-oxopiperidin-4-yl)-4-oxo-4H-pyrido[1,2-a]pyrimidin-9-yl)ethyl)amino)benzoic acid], for which the IC50 in experiment [1] and in experiment [2] was above 10 µM throughout.

For the compound `Cc1cc([C@@H](C)Nc2ccccc2C(=O)O)c2nc([C@H]3CCN(C)C(=O)C3)cc(=O)n2c1` [Example 11-376, 2-(((R)-1-(7-methyl-2-((S)-1-methyl-2-oxopiperidin-4-yl)-4-oxo-4H-pyrido[1,2-a]pyrimidin-9-yl)ethyl)amino)benzoic acid], the IC50 in experiment [1] was 6 µM; in experiment [2], above 10 µM.

On to `Cc1cc(C(C)Nc2ccccc2C(=O)O)c2nc(C3CCN(C)C(=O)C3)cc(=O)n2c1` (centres unmarked) [Example 11-377, 2-((1-(7-methyl-2-(1-methyl-2-oxopiperidin-4-yl)-4-oxo-4H-pyrido[1,2-a]pyrimidin-9-yl)ethyl)amino)benzoic acid], for which the 50% inhibitory concentration (IC50) in experiment [1] was 3.63 µM; in experiment [2] it was above 10 µM.

In the case of `Cc1cc(C(C)Nc2ccccc2C(=O)O)c2nc(C3=CCNCC3)cc(=O)n2c1` (centres unmarked) [Example 11-378, 2-((1-(7-methyl-4-oxo-2-(1,2,3,6-tetrahydropyridin-4-yl)-4H-pyrido[1,2-a]pyrimidin-9-yl)ethyl)amino)benzoic acid], the IC50 in experiment [1] and in experiment [2] was above 10 µM each time.

As for `CC(=O)N1CC=C(c2cc(=O)n3cc(C)cc([C@@H](C)Nc4ccccc4C(=O)O)c3n2)CC1` [Example 11-379, (R)-2-((1-(2-(1-acetyl-1,2,3,6-tetrahydropyridin-4-yl)-7-methyl-4-oxo-4H-pyrido[1,2-a]pyrimidin-9-yl)ethyl)amino)benzoic acid], the IC50 in experiment [1] was 3.91 µM; in experiment [2], above 10 µM.

As to `Cc1cc(C(C)Nc2ccccc2C(=O)O)c2nc(C3CCNCC3)cc(=O)n2c1` (centres unmarked) [Example 11-380, 2-((1-(7-methyl-4-oxo-2-(piperidin-4-yl)-4H-pyrido[1,2-a]pyrimidin-9-yl)ethyl)amino)benzoic acid], the half-inhibitory concentration (IC50) in experiment [1] and in experiment [2] was above 10 µM each time.

Regarding `CC(=O)N1CCC(c2cc(=O)n3cc(C)cc(C(C)Nc4ccccc4C(=O)O)c3n2)CC1` (centres unmarked) [Example 11-381, 2-((1-(2-(1-acetylpiperidin-4-yl)-7-methyl-4-oxo-4H-pyrido[1,2-a]pyrimidin-9-yl)ethyl)amino)benzoic acid], the figures for the IC50 in experiment [1] and in experiment [2] were 5.46 µM and above 10 µM, respectively.

Turning to `Cc1cc(C(C)Nc2ccccc2C(=O)O)c2nc(N3CCc4cnn(C)c4C3)cc(=O)n2c1` (centres unmarked) [Example 11-382, 2-((1-(7-methyl-2-(1-methyl-1,4,5,7-tetrahydro-6H-pyrazolo[3,4-c]pyridin-6-yl)-4-oxo-4H-pyrido[1,2-a]pyrimidin-9-yl)ethyl)amino)benzoic acid], the IC50 in experiment [1] was 4.32 µM; in experiment [2] it was above 10 µM.

`Cc1cc(C(C)Nc2ccccc2C(=O)O)c2nc(-c3ccc(=O)n(C)c3)cc(=O)n2c1` (centres unmarked) [Example 11-383, 2-((1-(7-methyl-2-(1-methyl-6-oxo-1,6-dihydropyridin-3-yl)-4-oxo-4H-pyrido[1,2-a]pyrimidin-9-yl)ethyl)amino)benzoic acid]: the values for the IC50 in experiment [1] and in experiment [2] were 4.03 µM and above 10 µM, respectively.

Turning to `Cc1cc(C(C)NC2CC(C(=O)O)C2)c2nc(N3CCCCC3)cc(=O)n2c1` (centres unmarked) [Example 11-385, 3-((1-(7-methyl-4-oxo-2-(piperidin-1-yl)-4H-pyrido[1,2-a]pyrimidin-9-yl)ethyl)amino)cyclobutane-1-carboxylic acid], the IC50 in experiment [1] and in experiment [2] was above 10 µM throughout.

Regarding `Cc1cc(C(C)NCCC(=O)O)c2nc(N3CCCCC3)cc(=O)n2c1` (centres unmarked) [Example 11-386], the IC50 in experiment [1] and in experiment [2] was above 10 µM in each case.

With `Cc1cc(C(C)NC(C)(C)CC(=O)O)c2nc(N3CCCCC3)cc(=O)n2c1` (centres unmarked) [Example 11-387, 3-methyl-3-((1-(7-methyl-4-oxo-2-(piperidin-1-yl)-4H-pyrido[1,2-a]pyrimidin-9-yl)ethyl)amino)butanoic acid], the IC50 in experiment [1] and in experiment [2] was above 10 µM in each case.

Turning to `Cc1cc(C(C)Nc2ccc(C(=O)O)cc2)c2nc(N3CCCCC3)cc(=O)n2c1` (centres unmarked) [Example 11-388, 4-((1-(7-methyl-4-oxo-2-(piperidin-1-yl)-4H-pyrido [1,2-a]pyrimidin-9-yl)ethyl)amino)benzoic acid], the IC50 in experiment [1] and in experiment [2] was above 10 µM throughout.

As for `Cc1cc(C(C)Nc2cccc(C(=O)O)c2)c2nc(N3CCCCC3)cc(=O)n2c1` (centres unmarked) [Example 11-389, 3-((1-(7-methyl-4-oxo-2-(piperidin-1-yl)-4H-pyrido[1,2-a]pyrimidin-9-yl)ethyl)amino)benzoic acid], the IC50 in experiment [1] and in experiment [2] was above 10 µM each time.

Consider `Cc1cc(C(C)Nc2cccc(C)c2C(=O)O)c2nc(N3CCCCC3)cc(=O)n2c1` (centres unmarked) [Example 11-390, 2-methyl-6-((1-(7-methyl-4-oxo-2-(piperidin-1-yl)-4H-pyrido[1,2-a]pyrimidin-9-yl)ethyl)amino)benzoic acid], for which the IC50 in experiment [1] and in experiment [2] was above 10 µM in each case.

Consider `Cc1cc(C(C)Nc2ccccc2C(=O)O)c2nc(-c3ccc(F)cc3)cc(=O)n2c1` (centres unmarked) [Example 11-391, 2-((1-(2-(4-fluorophenyl)-7-methyl-4-oxo-4H-pyrido[1,2-a]pyrimidin-9-yl)ethyl)amino)benzoic acid], for which the half-inhibitory concentration (IC50) in experiment [1] is 9.62 µM; in experiment [2] it was above 10 µM.

For the compound `COc1ccc(-c2cc(=O)n3cc(C)cc(C(C)Nc4ccccc4C(=O)O)c3n2)cc1` (centres unmarked) [Example 11-392, 2-((1-(2-(4-methoxyphenyl)-7-methyl-4-oxo-4H-pyrido[1,2-a]pyrimidin-9-yl)ethyl)amino)benzoic acid], the IC50 in experiment [1] was 4.04 µM; in experiment [2], above 10 µM.

As to `COc1cccc(-c2cc(=O)n3cc(C)cc(C(C)Nc4ccccc4C(=O)O)c3n2)c1` (centres unmarked) [Example 11-393, 2-((1-(2-(3-methoxyphenyl)-7-methyl-4-oxo-4H-pyrido[1,2-a]pyrimidin-9-yl)ethyl)amino)benzoic acid], the results for the IC50 in experiment [1] and in experiment [2] were 1.29 µM and above 10 µM, respectively.

In the case of `COc1ccccc1-c1cc(=O)n2cc(C)cc(C(C)Nc3ccccc3C(=O)O)c2n1` (centres unmarked) [Example 11-394, 2-((1-(2-(2-methoxyphenyl)-7-methyl-4-oxo-4H-pyrido[1,2-a]pyrimidin-9-yl)ethyl)amino)benzoic acid], the IC50 in experiment [1] and in experiment [2] was above 10 µM each time.

Turning to `Cc1cc(C(C)Nc2ccccc2C(=O)O)c2nc(-c3ccccc3C)cc(=O)n2c1` (centres unmarked) [Example 11-395, 2-((1-(7-methyl-4-oxo-2-(o-tolyl)-4H-pyrido[1,2-a]pyrimidin-9-yl)ethyl)amino)benzoic acid], the IC50 in experiment [1] and in experiment [2] was above 10 µM each time.

Take `Cc1cc(C(C)Nc2ccccc2C(=O)O)c2nc(-c3ccc(Cl)cc3)cc(=O)n2c1` (centres unmarked) [Example 11-396, 2-((1-(2-(4-chlorophenyl)-7-methyl-4-oxo-4H-pyrido[1,2-a]pyrimidin-9-yl)ethyl)amino)benzoic acid]: the IC50 in experiment [1] is 4.38 µM; in experiment [2] it was above 10 µM.

As for `Cc1cc(C(C)Nc2ccccc2C(=O)O)c2nc(-c3ccc(C#N)cc3)cc(=O)n2c1` (centres unmarked) [Example 11-397, 2-((1-(2-(4-cyanophenyl)-7-methyl-4-oxo-4H-pyrido[1,2-a]pyrimidin-9-yl)ethyl)amino)benzoic acid], the IC50 in experiment [1] is 3.37 µM; in experiment [2], above 10 µM.
